# Results reported in US20260069641A1, “GRAM-NEGATIVE BACTERIA FOR USE IN THE PREVENTION AND TREATMENT OF DISEASE IN POULTRY” (priority 2024, published 2026).
# Tested on: Eimeria acervulina, Eimeria maxima, and Eimeria tenella
# Experiment: Second study: floor-pen broilers, cocci-challenge plus built-up litter, dried bacterial biomass in feed, 28 days
# Format: in vivo, broiler chickens
# Conditions: column F of the chart
compound,measurement,value
"CC[C@@]1([C@@H]2O[C@@H]([C@H]3O[C@@](O)(CO)[C@H](C)C[C@@H]3C)C[C@@H]2C)CC[C@H]([C@]2(C)CC[C@]3(C[C@H](O)[C@@H](C)[C@@H]([C@@H](C)[C@@H](OC)[C@H](C)C(=O)O)O3)O2)O1 [Coban, Monensin]",Lesion Score Ileum Day 28,0.325
